Measured values: patent publication US20230364057A1, “BACTERIAL DNA GYRASE INHIBITORS AND METHODS OF USE THEREOF” (THE FLORIDA INTERNATIONAL UNIVERSITY BOARD OF TRUSTEES, priority 2022, published 2023)
Converted amounts (≈) assume the structure as drawn. Read-outs that look alike come from different tables or passages of the source.

Legend:
E. coli (ATCC 25922) = assay: Minimum inhibitory concentration, broth microdilution; details: Escherichia coli, ATCC25922, read-out: Minimum Inhibitory Concentration E. coli, Tables 3a-3c
Procedure: (§1) Antibacterial minimum inhibitory concentrations (MICs) were obtained from three independent experiments using broth microdilution methods in 96-well plates according to Clinical and Laboratory Standards Institute guidelines. Cells were culture from singles colonies in MHIIB medium for 24 h at 37° C. in agitation (200 RPM). The cultures were then diluted using the same media to reach an OD600 of 0.1. Then, 50 µL of the diluted cultures were added to the plates holding 50 µL of serially diluted compounds in MHIIB. The plates were incubated at 37° C. for 20 h. The starting inoculum was fixated to 10^5 colony-forming units per ml.

E. coli DNA gyrase [1] = biological target: T1, E. coli DNA gyrase (Escherichia coli (strain K12), UniProt P0AES4+P0AES6); assay: biochemical; type: biochemical
Mtb DNA gyrase = Mtb DNA gyrase (Mycobacterium tuberculosis (strain ATCC 25618 / H37Rv), UniProt P9WG45+P9WG47); assay: Mtb DNA gyrase inhibition assay (gel-based); type: biochemical; details: Table 5, Mtb gyrase; read-out: IC50 (µM) Mtb
Procedure: The IC50 against E. coli (A) and Mtb (C) gyrase were determined using the gel-based gyrase inhibition assays. The gyrase mediated DNA cleavage assays (B and D) were performed using pBR322. (A) 229 inhibits E. coli gyrase. Lane 1, rx pAB1. […] Lane 1, rx pAB1. […] 100 µM of CPDs were used. Symbols rx, nk, In, and sc represent relaxed, nicked, linear, and supercoiled DNA, respectively.
Agarose gel-based DNA gyrase inhibition assays were performed in 30 µL of 1 ×gyrase buffer (35 mM Tris-HCl, 24 mM KCl, 4 mM MgCl2, 2 mM DTT, 1.75 mM ATP, 0.1 mg/mL BSA, 6.5% glycerol, pH7.5) containing 400 ng of rx pAB1 at 37° C. 100 ng of DNA gyrase was used to supercoil the rx pAB1 in the presence of different concentrations of a gyrase inhibitor. After 15 minutes of incubation with the inhibitor at 37° C., all reactions were stopped with 1 µL of stop solution (3% SDS and 250 mM EDTA). Samples were analyzed by electrophoresis in 1% w/v agarose gels followed by ethidium bromide staining and photographed under UV light.

Mtb = Mtb whole cell assay (% inhibition, MIC); type: cell-based, Mycobacterium tuberculosis; details: Mycobacterium tuberculosis; Table 5 (same values in Table 6 at 20 µM)
S. aureus (ATCC 14775) = assay: Minimum inhibitory concentration, broth microdilution; details: for MIC: Staphylococcus aureus
Procedure: as §1

MRSA = assay: as above; details: for MIC: Staphylococcus aureus, MRSA
B. subtilis (ATCC 6633) = assay: as above; details: Bacillus subtilis, ATCC6633, read-out: Minimum Inhibitory Concentration B.subtilis
Procedure: as §1

E. coli DNA gyrase [2] = biological target: T1, E. coli DNA gyrase; assay: Agarose gel-based DNA gyrase inhibition assay; type: biochemical
Procedure: 100 ng of DNA gyrase was used to supercoil the rx pAB1 in the presence of different concentrations of a gyrase inhibitor. […] Samples were analyzed by electrophoresis in 1% w/v agarose gels followed by ethidium bromide staining and photographed under UV light.

[3] = biological target: E. coli DNA topoisomerase IV (Escherichia coli (strain K12), UniProt P0AFI2+P20083); assay: E. coli DNA topoisomerase IV relaxation assay (gel-based); type: biochemical; details: IC50 Topoisomerase IV Gel-based, Table 8
Chain of E. coli DNA topoisomerase IV (P0AFI2 whole entry, looked up): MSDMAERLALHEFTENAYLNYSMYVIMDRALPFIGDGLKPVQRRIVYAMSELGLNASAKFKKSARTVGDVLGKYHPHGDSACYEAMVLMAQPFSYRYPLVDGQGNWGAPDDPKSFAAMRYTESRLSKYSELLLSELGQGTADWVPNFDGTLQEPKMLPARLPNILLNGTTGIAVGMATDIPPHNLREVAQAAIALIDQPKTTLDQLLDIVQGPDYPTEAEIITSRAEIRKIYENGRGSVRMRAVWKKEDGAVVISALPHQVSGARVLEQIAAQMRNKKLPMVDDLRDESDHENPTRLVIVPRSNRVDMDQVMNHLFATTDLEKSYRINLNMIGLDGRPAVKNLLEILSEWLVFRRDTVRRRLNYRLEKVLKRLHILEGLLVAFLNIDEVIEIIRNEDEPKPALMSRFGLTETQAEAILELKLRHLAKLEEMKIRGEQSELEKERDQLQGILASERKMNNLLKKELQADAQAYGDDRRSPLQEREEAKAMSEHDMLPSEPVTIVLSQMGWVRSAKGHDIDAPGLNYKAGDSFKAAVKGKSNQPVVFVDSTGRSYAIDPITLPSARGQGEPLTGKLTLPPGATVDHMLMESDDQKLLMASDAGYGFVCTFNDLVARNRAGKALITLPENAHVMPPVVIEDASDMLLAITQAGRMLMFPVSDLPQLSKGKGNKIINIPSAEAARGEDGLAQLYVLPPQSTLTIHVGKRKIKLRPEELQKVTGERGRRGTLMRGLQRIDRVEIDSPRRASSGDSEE
Chain of E. coli DNA topoisomerase IV (P20083 whole entry, looked up): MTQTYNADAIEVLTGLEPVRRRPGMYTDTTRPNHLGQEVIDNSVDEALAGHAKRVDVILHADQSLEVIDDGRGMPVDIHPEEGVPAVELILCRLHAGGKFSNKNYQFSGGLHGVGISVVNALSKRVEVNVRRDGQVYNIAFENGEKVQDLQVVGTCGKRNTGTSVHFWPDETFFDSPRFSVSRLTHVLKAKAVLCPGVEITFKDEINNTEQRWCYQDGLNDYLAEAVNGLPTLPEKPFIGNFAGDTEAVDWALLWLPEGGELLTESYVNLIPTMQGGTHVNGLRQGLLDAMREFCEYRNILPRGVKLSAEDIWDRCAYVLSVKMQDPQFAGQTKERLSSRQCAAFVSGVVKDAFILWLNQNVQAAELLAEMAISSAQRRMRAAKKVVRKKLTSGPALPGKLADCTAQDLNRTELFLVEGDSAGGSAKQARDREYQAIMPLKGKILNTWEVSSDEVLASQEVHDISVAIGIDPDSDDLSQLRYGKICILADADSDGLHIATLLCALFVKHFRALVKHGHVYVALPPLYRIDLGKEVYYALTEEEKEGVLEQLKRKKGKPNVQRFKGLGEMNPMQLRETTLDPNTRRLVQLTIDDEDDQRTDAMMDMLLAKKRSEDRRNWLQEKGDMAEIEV
Procedure: Relaxation assays by E. coli DNA topoisomerase IV and the ATPase assays were performed. […] Lane 1 is supercoiled plasmid pAB1. […] The supercoiled, fluorescently-labeled plasmid pAB1_FL905 was used.

in vitro [4] = details: mouse
in vitro [5] = details: human
E. coli DNA gyrase [6] = biological target: T1, E. coli DNA gyrase; assay: DNA gyrase mediated DNA cleavage assay; type: biochemical; details: pBR322
Procedure: 250 ng of supercoiled pBR322 plasmid were incubated with 50 nM of E. coli DNA gyrase in reactions containing 35 mM Tris-HCl, 24 mM KCl, 4 mM MgCl2, 2 mM DTT, 0.1 mg/mL BSA, 6.5% glycerol, and 1.75 mM ATP, in presence of 200 µM of compounds, at 37° C. for 15 min. Then, 0.2% (w/v) of SDS and 0.1 mg/mL proteinase K were added, and samples were incubated at 37° C. for 1 h. […] Samples were examined by electrophoresis in 1% w/v agarose gel containing 0.5 µg/mL ethidium bromide and photographed under UV light.

E. coli DNA gyrase [7] = biological target: T1, E. coli DNA gyrase; assay: E. coli DNA gyrase ATPase assay; type: biochemical
Procedure: E. coli DNA gyrase ATPase assays were performed in 60 µL of 1 ×gyrase ATPase buffer (10 mM Tris.HCl (pH 7.5), 0.2 mM EDTA, 1 mM magnesium chloride, 1 mM DTT, and 2% (w/v) glycerol) containing 50 nM E. coli DNA gyrase, 200 ng rx pAB1, 0.8 mM Phosphoenol pyruvate, 1.2 units of Pyruvate kinase, 1.7 units of lactate dehydrogenase, and 0.4 mM of NADH at 37° C. After the reaction mixtures are incubated on ice for 5 minutes, 2 mM of ATP is added to initiate the reaction. Absorbance at OD340nm is monitored for up to 30 minutes at 37° C. in a spectrophotometer.

[8] = IC50 (µM) EC, Table 5, E. coli gyrase
[9] = ATCC14775, read-out: MIC (µM) SA
[10] = ATCC14775, read-out: Minimum Inhibitory Concentration S.aureus
[11] = read-out: Minimum Inhibitory Concentration S.aureus MRSA
[12] = IC50 (50-200 µM), bin of Table 2
[13] = IC50 (15-[…] µM), bin of Table 2

SMILES | MIC (S. aureus (ATCC 14775); [10]) | MIC (MRSA; [11]) | inhibition of E. coli DNA gyrase activities (E. coli DNA gyrase [2]; 50 µM of compounds) | inhibition of E. coli DNA gyrase activities (E. coli DNA gyrase [2]; 200 µM of compounds) | IC50 (in vitro [4]) | IC50 (in vitro [5]) | other results
COc1cc2ccccc2cc1C(=O)NC(=S)Nc1ccc(C(=O)O)cc1 [Compound 72] | – | – | – | – | – | – | MIC (E. coli (ATCC 25922)): 100 µM (≈ 38 µg/mL)
Cc1c(CCC(=O)O)c(=O)oc2c(C)c3occ(-c4ccccc4)c3cc12 [Compound 121] | 3.12 µM (≈ 1.13 µg/mL) | 3.12 µM (≈ 1.13 µg/mL) | – | – | – | – | IC50 (E. coli DNA gyrase [1]; [8]): 28 µM; IC50 (Mtb DNA gyrase): 58 µM; inhibition at 20 µM (Mtb): 36.7%; MIC (S. aureus (ATCC 14775); [9]): 3.1 µM (≈ 1.12 µg/mL); MIC (MRSA; read-out: MIC (µM) MRSA): 3.1 µM (≈ 1.12 µg/mL); MIC (B. subtilis (ATCC 6633)): 50 µM (≈ 18.1 µg/mL)
O=C(O)c1cc(O)c(O)c(O)c1 [gallic acid] | – | – | – | – | – | – | IC50 (E. coli DNA gyrase [2]; Table 8, read-out: IC50 Gyrase Gel-based): > 500 µM; inhibition of E. coli DNA gyrase activities (E. coli DNA gyrase [1]): does not inhibit E. coli DNA gyrase up to 500 µM; IC50 [3]: > 500 µM
O=C(O)c1cccc(-c2ccc(/C=c3/sc4nc5ccccc5n4c3=O)o2)c1 [Compound 47] | – | – | completely inhibited | completely inhibited | > 200 µM | > 200 µM | –
Cc1cc(/C=C2\SC(=S)NC2=O)c(C)n1C [Compound 64] | – | – | – | completely inhibited | > 200 µM | > 200 µM | IC50 (E. coli DNA gyrase [1]; [12]): 50 to 200 µM
O=C1C=C(NCCc2cc(Br)c(O)c(Br)c2)C(=O)c2ncccc21 [Compound 232, 7-((2-(3,5-Dibromo-4-hydroxyphenyl)ethyl)amino)-5,8-quinolinedione] | – | – | inhibited | completely inhibited | – | – | IC50 (E. coli DNA gyrase [1]; [12]): 50 to 200 µM; E. coli DNA gyrase-mediated DNA breaks and nicking (E. coli DNA gyrase [6]): cause DNA nicking
Cc1cccc2c1N=C(O)C2/N=N/c1ccc(C(=O)O)cc1 (centres unmarked) [Compound 128] | 50 µM (≈ 14.8 µg/mL) | 50 µM (≈ 14.8 µg/mL) | completely inhibited | – | > 200 µM | > 200 µM | MIC (B. subtilis (ATCC 6633)): 25 µM (≈ 7.38 µg/mL)
COc1cc(/C=N/N=c2\[nH]c3ccccc3s2)cc([N+](=O)[O-])c1O [Compound 178] | – | – | completely inhibited | – | > 200 µM | > 200 µM | –
O=C(O)CCNc1ccc(NCCC(=O)O)c2c1C(=O)c1ccccc1C2=O [Compound 173, 3-({4-[(2-carboxyethyl)amino]-9,10-dioxo-9,10-dihydroanthracen-1-yl}amino)propanoic acid] | – | 100 µM (≈ 38.2 µg/mL) | completely inhibited | – | – | – | IC50 (E. coli DNA gyrase [1]; [13]): 15 to 25 µM; E. coli DNA gyrase-mediated DNA breaks and nicking (E. coli DNA gyrase [6]): cause DNA nicking
CC(=O)Nc1ccc(/C=C2\Sc3ccccc3C2=O)cc1 [Compound 54] | – | – | – | almost completely inhibited | > 200 µM | > 200 µM | IC50 (E. coli DNA gyrase [1]; [12]): 50 to 200 µM
CC(=O)Nc1ccc(S(=O)(=O)Nc2nc3ccccc3nc2Nc2ccc(C(=O)O)c(O)c2)cc1 [Compound 30] | – | – | – | – | > 200 µM | > 200 µM | –
CCn1c(N)[n+](CC(=O)Nc2ccc(SC(F)F)cc2)c2ccccc21.[Cl-] [Compound 135] | 50 µM | 50 µM | completely inhibited | – | – | – | IC50 (E. coli DNA gyrase [1]; [13]): 15 to 25 µM; MIC (E. coli (ATCC 25922)): 200 µM; MIC (B. subtilis (ATCC 6633)): 50 µM
O=C(Nc1cccc(C2=NCCN2)c1)Nc1cccc(C2=NCCN2)c1 [Compound 79] | 200 µM (≈ 69.7 µg/mL) | 200 µM (≈ 69.7 µg/mL) | – | – | – | – | IC50 (E. coli DNA gyrase [1]; [12]): 50 to 200 µM; MIC (E. coli (ATCC 25922)): 200 µM (≈ 69.7 µg/mL); MIC (B. subtilis (ATCC 6633)): 100 µM (≈ 34.8 µg/mL)
Cc1c(CCC(=O)O)c(=O)oc2c(C)c3occ(-c4ccc(F)cc4)c3cc12 [Compound 123] | 1.56 µM (≈ 0.593 µg/mL) | 1.56 µM (≈ 0.593 µg/mL) | completely inhibited | – | – | – | IC50 (E. coli DNA gyrase [1]; [8]): 28.1 µM; IC50 (Mtb DNA gyrase): 34 µM; inhibition at 20 µM (Mtb): 31.8%; MIC (S. aureus (ATCC 14775); [9]): 1.6 µM (≈ 0.609 µg/mL); MIC (MRSA; read-out: MIC (µM) MRSA): 1.6 µM (≈ 0.609 µg/mL); MIC (B. subtilis (ATCC 6633)): 6.25 µM (≈ 2.38 µg/mL)
O=C(O)c1ccc(/N=N/C2C(O)=Nc3ccc(F)cc32)cc1 (centres unmarked) [Compound 127] | 50 µM (≈ 15 µg/mL) | 50 µM (≈ 15 µg/mL) | completely inhibited | – | > 200 µM | > 200 µM | MIC (B. subtilis (ATCC 6633)): 25 µM (≈ 7.48 µg/mL)
Cc1c(CCC(=O)O)c(=O)oc2c(C)c3occ(-c4ccc(Cl)cc4)c3cc12 [Compound 120] | 1.56 µM (≈ 0.619 µg/mL) | 1.56 µM (≈ 0.619 µg/mL) | completely inhibited | – | – | – | IC50 (E. coli DNA gyrase [1]; [8]): 7.9 µM; IC50 (Mtb DNA gyrase): 33 µM; inhibition at 20 µM (Mtb): 18.7%; MIC (S. aureus (ATCC 14775); [9]): 1.6 µM (≈ 0.635 µg/mL); MIC (MRSA; read-out: MIC (µM) MRSA): 1.6 µM (≈ 0.635 µg/mL)
CSc1nc(SCC(=O)O)c2sc3nc(-c4ccccc4)c4c(c3c2n1)CCC4 [Compound 19] | – | – | completely inhibited | completely inhibited | > 200 µM | > 200 µM | –
CCN(CC)c1ccc(C=C2SC(=S)NC2=O)cc1 [Compound 212] | – | – | completely inhibited | completely inhibited | > 200 µM | > 200 µM | IC50 (E. coli DNA gyrase [1]; IC50 ([…]-50 µM), bin of Table 2): 25 to 50 µM
Cc1c(CCC(=O)O)c(=O)oc2c(C)c3occ(-c4ccc(Br)cc4)c3cc12 [Compound 48] | 3.12 µM (≈ 1.38 µg/mL) | 3.12 µM (≈ 1.38 µg/mL) | completely inhibited | completely inhibited | – | – | inhibition of E. coli DNA gyrase activities (E. coli DNA gyrase [1]): potent bacterial DNA gyrase inhibitors; IC50 (E. coli DNA gyrase [1]; Table 5, E. coli gyrase, read-out: IC50 (µM) EC): 4.2 µM; Ki (E. coli DNA gyrase [7]): 0.15 µM; inhibition of the ATPase activities of E. coli DNA gyrase (E. coli DNA gyrase [7]; AB-MECA and gallates at 100 µM): ATP competitive inhibitor; IC50 (Mtb DNA gyrase): 57 µM; inhibition at 20 µM (Mtb): 38.6%; MIC (S. aureus (ATCC 14775); [9]): 3.1 µM (≈ 1.37 µg/mL); MIC (MRSA; read-out: MIC (µM) MRSA): 3.1 µM (≈ 1.37 µg/mL)
Cc1c(CCC(=O)O)c(=O)oc2c(C)c3occ(-c4ccc(N5CCCC5)cc4)c3cc12 [Compound 125] | – | – | completely inhibited | – | – | – | inhibition of E. coli DNA gyrase activities (E. coli DNA gyrase [1]): potently inhibited; IC50 (E. coli DNA gyrase [1]; [8]): 4.9 µM; IC50 (Mtb DNA gyrase): 55 µM; inhibition at 20 µM (Mtb): 10.2%; growth of S. aureus (S. aureus (ATCC 14775)): did not inhibit the growth; MIC (S. aureus (ATCC 14775); [9]): > 200 µM; growth of MRSA (MRSA): did not inhibit the growth
O=C(O)c1ccc(NN=CC=Cc2ccc([N+](=O)[O-])o2)cc1 [Compound 110] | – | – | potently inhibited | – | > 200 µM | > 200 µM | IC50 (E. coli DNA gyrase [1]; [12]): 50 to 200 µM
